Three compounds from the NIST ThermoML archive (doi:10.1021/acs.jced.8b00879) can be followed below.

± gives the expanded uncertainty stated by the source.

The nature of data set [1]: mn = molality of the nth substance listed, in mol/kg. As to conditions: 85 kPa, Liquid, m2 = 0; for viscosity: Capillary tube (Ostwald / Ubbelohde) method.
The conditions of data set [2]: 85 kPa, Liquid, Capillary tube (Ostwald / Ubbelohde) method.

Broadly, the viscosity is the resistance of a fluid to flow. For orientation: mass density means the mass of a sample divided by its volume.

On to `O` [water] + C[N+](C)(C)CCO.O=C([O-])[C@@H]1CCCN1, for which the viscosity in data set [1] (288.15 K) is listed as 1.259 ± 0.12 mPa·s; in data set [1] (298.15 K) it was 0.995 ± 0.12 mPa·s; in data set [1] (308.15 K) it was 0.819 ± 0.12 mPa·s; in data set [1] (318.15 K) it was 0.686 ± 0.12 mPa·s.
For the compound `O` [water] + C[N+](C)(C)CCO.NCC(=O)[O-], the viscosity in data set [1] (288.15 K) turned out to be 1.259 ± 0.12 mPa·s; in data set [1] (298.15 K) it was 0.995 ± 0.12 mPa·s; in data set [1] (308.15 K), 0.819 ± 0.12 mPa·s; in data set [1] (318.15 K), 0.686 ± 0.12 mPa·s. For the same compound, the mass density in data set [1] (298.15 K, Vibrating tube method) was determined as 997.38 ± 0.43 kg/m3.
On to `O` [water], for which the viscosity in data set [2] (288.15 K) was found to be 1.259 ± 0.12 mPa·s; in data set [2] (298.15 K), 0.995 ± 0.12 mPa·s; in data set [2] (308.15 K), 0.819 ± 0.12 mPa·s; in data set [2] (318.15 K) it was 0.686 ± 0.12 mPa·s.
